For 79 compounds, RP-LC retention time results are on record in the METLIN SMRT retention time set (Domingo-Almenara et al. 2019).

SMILES strings stand for the structures.

The data set can be described thus: gradient 5% acetonitrile 3 min, to 50% in 2 min, to 85% in 15 min, held 3 min, 100 µL/min. The note with it: column: Zorbax Extend-C18 2.1 x 50 mm; eluents: water / acetonitrile, 0.1% formic acid. An outline of the steps: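 Values are retention times taken from adduct peaks that software picked and an analyst inspected. The pure standards were run as mixtures of ~100 molecules on HPLC linked to a quadrupole time-of-flight mass spectrometer, in positive and negative ionization mode. A Zorbax Extend-C18 column (2.1 × 50 mm, 1.8 μm) was used at 100 μL/min with water and acetonitrile, each including 0.1% formic acid.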
As for `CSc1ccc(CNC(=O)Cn2c(C)cc(-c3nnc(C4CC4)o3)c2C)cc1`, the RP-LC retention time was found to be 816 s. On to `CC(C)(C)CC(C)(C)n1nnnc1N`, for which the RP-LC retention time came out at 771 s. For `O=C(NC1CCCCC1)c1ccc(Nc2c(-c3ccccc3)nc3cnccn23)cc1`, the RP-LC retention time was 802 s. The compound `O=C(Nc1cccc(F)c1)N1CCC(CCNC(=O)C2(c3ccccc3)CC2)CC1` came in with an RP-LC retention time of 883 s.

In turn, `Cc1ccc2[nH]cc(CCNC(=O)COc3ccc(Cl)cc3)c2c1` gave an RP-LC retention time of 955 s.

Take `Cc1cc(NC(=O)C(=O)NCc2nc(-c3ccccc3)no2)no1`: the RP-LC retention time was found to be 742 s. As to `CC1(C(=O)NC2CCCCCC2)CN(S(C)(=O)=O)CC(=O)N1c1cccc(F)c1` (centres undefined), the RP-LC retention time was 835 s. The same measure for `Cc1nnc(C2CC3(CCN(CC(C)C)CC3)CN2Cc2ccccc2)o1` (centres undefined): 566 s; for `Cc1ccc2c(=O)c(C(=O)Nc3ccc(C)c(C)c3)c[nH]c2n1`: 894 s. The same measure for `COC(=O)c1ccc(NC(=O)N2CC(N(C3CCOCC3)S(C)(=O)=O)C2)cc1`: 686 s; for `COc1ccc(CNC(=O)C2CCN(c3ccc(SCc4ccccc4)nn3)CC2)cc1OC`: 704 s; for `Cc1cc(C)c(S(=O)(=O)N2CCn3c(nn(CC4CC4)c3=O)C2)cc1C`: 873 s. Take `Cc1nc(-c2ccc(S(=O)(=O)Nc3ccc(S(N)(=O)=O)cc3)cc2)co1`: the RP-LC retention time is 706 s.

Compound `O=C(NCc1ccc(F)cc1)N1CCCC1c1nc(-c2ccccc2)no1` (centres undefined) gave an RP-LC retention time of 914 s.

For `COCc1cc2nn(CC(=O)Nc3c(C)cccc3C)c(=O)n2c(-c2ccccc2)n1`, the RP-LC retention time came out at 930 s. Regarding `CCc1cccc(NC(=O)Cn2nc(N3CCCC(C)C3)c3ccccc3c2=O)c1` (centres undefined), the RP-LC retention time is 1240 s. `CN(C)c1ccc(CNC(=O)C2CCN(c3cc(N4CCCCC4)ncn3)CC2)cc1`: the RP-LC retention time was 559 s.

As to `O=S(=O)(c1cccc(-c2nnc(-c3ccccc3Br)o2)c1)N1CCCCC1`, the RP-LC retention time amounted to 1160 s. With `CCc1ccccc1NC(=O)c1cccn1Cc1noc(C)n1`, the RP-LC retention time stood at 845 s.

The compound `COc1ccc(Cn2c(CO)cnc2SCC(=O)N2CCCc3ccccc32)cc1` yielded an RP-LC retention time of 702 s.

Regarding `COc1ccc(C(=O)N2C[C@@H]3C[C@H](NS(C)(=O)=O)[C@H]2C3)c(C)c1`, the RP-LC retention time came to 629 s. The same measure for `Cc1ccccc1Nc1c(-c2ccc(N(C)C)cc2)nc2c(C)cccn12`: 798 s; for `Cc1c(Br)cncc1C(=O)O`: 620 s; for `CS(=O)(=O)N1CCN(C(=O)CCC2CCN(c3cc(NC4CC4)ncn3)CC2)CC1`: 606 s. With `COc1cccc(CN2CCCn3nc(-c4cccc(OC)c4)cc3C2)c1`, the RP-LC retention time is 561 s. With `Cn1c(=O)c2ccn(CC(=O)N3CCN(c4ccc(F)cc4)CC3)c2n(C)c1=O`, the RP-LC retention time was found to be 683 s. Turning to `CCc1nc(-c2cc(S(=O)(=O)N3CCC(C(=O)NC4CC4)CC3)c(C)s2)no1`, the RP-LC retention time was found to be 744 s. In turn, `CCOc1ccc(NC(=O)Cn2cccc2-c2nnc(-c3ccccc3)o2)cc1` showed an RP-LC retention time of 990 s. The compound `COC(=O)c1ccc2c(=O)n(-c3cc(OC)cc(OC)c3)c(N3CCC(C)CC3)nc2c1` displayed an RP-LC retention time of 1210 s. The compound `COc1ccc(-c2csc3c(=O)n(CC(=O)OC(C)(C)C)cnc23)cc1` came in with an RP-LC retention time of 1180 s.

In the case of `CCN1CCN(C(=O)CC(c2cc(OC)c(OC)c(OC)c2)N2Cc3ccccc3C2=O)CC1` (centres undefined), the RP-LC retention time is 613 s. In turn, `O=C(NCC1CCCO1)c1ccc(Cn2nc(N3CCN(c4ccccc4)CC3)ccc2=O)o1` (centres undefined) yielded an RP-LC retention time of 737 s.

`CC1=C(c2ccc(C(C)C)cc2)S(=O)(=O)N=C1N1CCC(C(=O)N2CCOCC2)CC1` yielded an RP-LC retention time of 779 s. For the compound `CC(C)n1cc(S(=O)(=O)N2CCN(c3ccccc3Cl)CC2)c2cccnc21`, the RP-LC retention time came out at 761 s. In turn, `CCN1c2ccccc2C(=O)NC12CCN(C(=O)Cc1ccc(OC)cc1)CC2` showed an RP-LC retention time of 805 s. Take `Cc1noc(C)c1Cc1ccc(C(=O)NCC23CCC=C2N(C)C(=O)CC3)o1` (centres undefined): the RP-LC retention time was determined as 727 s. Turning to `Cc1nnc(-c2ccc3ccn(CC(=O)N4CCC5(CC4)OCCO5)c3c2)o1`, the RP-LC retention time came out at 673 s. With `Cn1c(=O)c(N2CCN(S(=O)(=O)c3cccc(Cl)c3)CC2)nc2ccncc21`, the RP-LC retention time was 677 s. Turning to `COc1ccc(OC)c(NC(=O)Cn2cnc3c(sc4nc(-c5ccccc5)ccc43)c2=O)c1`, the RP-LC retention time is 1040 s. For the compound `CCn1cc(S(=O)(=O)N2CCC3(CC2)CN(Cc2ccc(OC)cc2)C3=O)cn1`, the RP-LC retention time turned out to be 729 s. `Brc1ccc(OCc2nn3c(-c4cccnc4)nnc3s2)cc1` gave an RP-LC retention time of 885 s. In turn, `CC(C)Cc1ccc(S(=O)(=O)N2CCc3c(c(-c4nnc(-c5ccccc5F)o4)nn3C)C2)cc1` returned an RP-LC retention time of 1140 s. Regarding `Cc1cccc(Nc2c(-c3ccc(N(C)C)cc3)nc3ncccn23)c1`, the RP-LC retention time is 745 s.

As to `COc1ccccc1CN1CCc2nc(N3CCN(c4ccccc4OC)CC3)ncc2C1`, the RP-LC retention time turned out to be 687 s.

The compound `CCC(C)NC(=O)CCc1cc2cc(OC)ccc2[nH]c1=O` (centres undefined) showed an RP-LC retention time of 668 s. `CNS(=O)(=O)c1cc(-c2nnc(-c3ccccc3)o2)ccc1OC` registered an RP-LC retention time of 786 s. As to `CN1CCC(NC(=O)c2n[nH]c3c2CN(C(=O)c2ccccc2)CC3)CC1`, the RP-LC retention time stood at 568 s. The same measure for `COc1ccc(CNC(=O)c2ccc(CN3CCN(C(C)C)C(=O)C3=O)cc2)cc1`: 693 s.

`CCOc1ccc(CNC(=O)c2nnn(Cc3nc(-c4cccc(C)c4)oc3C)c2C)cc1` gave an RP-LC retention time of 1140 s. In turn, `Cc1noc([C@@H]2CC(F)(F)CN2S(=O)(=O)c2ccc(F)cc2)n1` had an RP-LC retention time of 884 s. The compound `CC(C)n1cnc(S(=O)(=O)N2CCCC(C(=O)Nc3cccc(C(F)(F)F)c3)C2)c1` (centres undefined) displayed an RP-LC retention time of 890 s. `Cc1c(S(=O)(=O)CCNC(=O)NCc2ccc(F)cc2)c2ccccc2n1C` returned an RP-LC retention time of 737 s. The compound `CC1CCN(C(=O)C2CCN(c3nc4ccc(-c5ccccc5)nc4s3)CC2)CC1` yielded an RP-LC retention time of 1140 s. As to `CCn1cc(C(=O)N[C@H](C(=O)O)C(C)C)c(=O)c2cc3c(cc21)OCO3`, the RP-LC retention time came to 681 s. For the compound `COC(=O)c1ccc(NC(=O)c2csc(-c3cn(C)c4ncccc34)n2)cc1`, the RP-LC retention time stood at 990 s.

As for `O=C(c1ccccc1Cl)N1CCN(c2cc(-c3ccccc3)[nH]n2)CC1`, the RP-LC retention time is 804 s. In turn, `COc1ccc(CCNC(=O)Cn2nc3n(c2=O)CCCCC3)cc1OC` gave an RP-LC retention time of 641 s. The same measure for `COc1ccc(Cl)cc1NC(=O)C1CCCN(c2cc(=O)n(C)c(=O)n2C)C1` (centres undefined): 786 s. The compound `CCn1cnc2cc(-c3noc(C(NC(=O)c4ccco4)C(C)C)n3)ccc21` (centres undefined) registered an RP-LC retention time of 666 s. The same measure for `Cn1ncc2c3ccccc3n(CCCC(=O)N3CCCCC3)c2c1=O`: 824 s; for `COc1ccc(OCc2noc(CNC(=O)NCc3cccs3)n2)cc1`: 737 s. Compound `O=C(C1CCCCN1S(=O)(=O)c1ccc(F)cc1)N1CCc2ccccc21` (centres undefined) came in with an RP-LC retention time of 1090 s. The same measure for `Cc1ccc(CNC(=O)c2c(C)sc3ncnc(N4CCCCC4)c23)cc1`: 1070 s. `Cc1c(Cl)cccc1NC(=O)N(C)CC1CCOC1` (centres undefined) yielded an RP-LC retention time of 720 s.

The compound `O=C(Nc1cccc(-c2cn3cccnc3n2)c1)c1ccccc1Cl` showed an RP-LC retention time of 666 s. As for `O=C(CN1C(=O)c2ccccc2C1=O)Nc1nnc(C2=COCCO2)o1`, the RP-LC retention time was 609 s. For `COc1ccc(NC(=O)Cn2nc3c(Oc4ccccc4Cl)nccn3c2=O)cc1`, the RP-LC retention time worked out at 859 s. The same measure for `COc1ccc(-c2nnc(COc3ccc(NC(=O)c4cncc(Br)c4)cc3)o2)cc1`: 893 s; for `COc1ccc(N2CCN(C(=O)C3CC(=O)N(CCc4ccccc4)C3)CC2)cc1` (centres undefined): 729 s; for `COc1ccc(C(=O)Nc2nc(-c3ccc4c(c3)NC(=O)C(C)O4)cs2)cc1` (centres undefined): 877 s. In turn, `COCCOCC(=O)N1CCC(c2noc(C3CC3)n2)C1` (centres undefined) registered an RP-LC retention time of 619 s. As to `CCC(C)C(NC(=O)Cc1ccc(OC)cc1Cl)C(=O)Nc1nc2ccccc2[nH]1` (centres undefined), the RP-LC retention time is 772 s. `CCOc1ccc(N2CC(NC(=O)N3CCN(C(=O)c4ccco4)CC3)CC2=O)cc1` (centres undefined) showed an RP-LC retention time of 632 s. In turn, `Cc1ccc(-c2cn3c(CC(=O)Nc4ccc(C#N)cc4)csc3n2)cc1C` yielded an RP-LC retention time of 821 s. Compound `Cc1ccc(Sc2nccnc2N2CCCC(C(=O)Nc3cc(C)cc(C)c3)C2)cc1` (centres undefined) showed an RP-LC retention time of 1150 s.

The compound `Cc1ccc(CN2CCN(C3CCN(C(=O)Nc4ccc(F)c(Cl)c4)CC3)C(=O)C2=O)cc1` registered an RP-LC retention time of 849 s. The same measure for `Cc1ccc(S(=O)(=O)N2CCCCC2)cc1-c1nnc(-c2ccc(Cl)cc2)o1`: 1250 s.

For the compound `Cc1ccc(C(=O)NCCc2nc3cccnc3n2C)c(C)c1`, the RP-LC retention time is 623 s. As for `CN1CCN(CCCNC(=O)Cn2c(=O)c3cccn3c3ccc(F)cc32)CC1`, the RP-LC retention time turned out to be 589 s.
